Where two headings read alike, the source gives them in different places.
What was measured:
Assay in all cases: HotSpot kinase profiling
Format in all cases: biochemical
CDK1/cyclin A = biological target: T1, CDK1/cyclin A (Homo sapiens, UniProt P06493)
T1 construct: purchased Reaction Biology Corp
How it was run: (§1)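 Percent inhibition, averaged when run more than once and referenced to a DMSO negative control, came from a radioactive filter-binding readout on P81 paper. Reactions of kinase with freshly made substrate and cofactors ran for 2 h at room temperature.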

ABL1 = biological target: T2, ABL1 (Homo sapiens, UniProt P00519)
T2 construct: purchased Reaction Biology Corp
How it was run: as §1

ROCK2 = biological target: T3, ROCK2 (Homo sapiens, UniProt O75116)
T3 construct: purchased Reaction Biology Corp
How it was run: as §1

STK38L/NDR2 = biological target: T4, STK38L/NDR2 (Homo sapiens, UniProt Q9Y2H1)
T4 construct: purchased Reaction Biology Corp
How it was run: as §1

P38g = biological target: T5, P38g (Homo sapiens, UniProt P53778)
T5 construct: purchased Reaction Biology Corp
T5 sequence (P53778 1-367): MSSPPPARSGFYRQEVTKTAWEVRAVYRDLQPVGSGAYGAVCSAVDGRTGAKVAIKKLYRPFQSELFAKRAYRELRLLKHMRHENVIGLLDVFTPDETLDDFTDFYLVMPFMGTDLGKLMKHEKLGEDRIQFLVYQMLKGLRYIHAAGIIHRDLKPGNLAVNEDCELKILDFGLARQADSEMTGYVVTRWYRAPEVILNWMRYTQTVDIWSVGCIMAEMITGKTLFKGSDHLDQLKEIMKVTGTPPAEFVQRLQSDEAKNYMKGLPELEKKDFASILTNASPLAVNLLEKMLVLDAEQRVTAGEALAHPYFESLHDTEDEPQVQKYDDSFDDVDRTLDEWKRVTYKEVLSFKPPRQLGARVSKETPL
How it was run: as §1

CK1a1 = biological target: T6, CK1a1 (Homo sapiens, UniProt P48729)
T6 construct: purchased Reaction Biology Corp
How it was run: as §1

MST4 = biological target: T7, MST4 (Homo sapiens, UniProt Q9P289)
T7 construct: purchased Reaction Biology Corp
How it was run: as §1

EPHA8 = biological target: T8, EPHA8 (Homo sapiens, UniProt P29322)
T8 construct: purchased Reaction Biology Corp
T8 sequence (P29322 28-1005): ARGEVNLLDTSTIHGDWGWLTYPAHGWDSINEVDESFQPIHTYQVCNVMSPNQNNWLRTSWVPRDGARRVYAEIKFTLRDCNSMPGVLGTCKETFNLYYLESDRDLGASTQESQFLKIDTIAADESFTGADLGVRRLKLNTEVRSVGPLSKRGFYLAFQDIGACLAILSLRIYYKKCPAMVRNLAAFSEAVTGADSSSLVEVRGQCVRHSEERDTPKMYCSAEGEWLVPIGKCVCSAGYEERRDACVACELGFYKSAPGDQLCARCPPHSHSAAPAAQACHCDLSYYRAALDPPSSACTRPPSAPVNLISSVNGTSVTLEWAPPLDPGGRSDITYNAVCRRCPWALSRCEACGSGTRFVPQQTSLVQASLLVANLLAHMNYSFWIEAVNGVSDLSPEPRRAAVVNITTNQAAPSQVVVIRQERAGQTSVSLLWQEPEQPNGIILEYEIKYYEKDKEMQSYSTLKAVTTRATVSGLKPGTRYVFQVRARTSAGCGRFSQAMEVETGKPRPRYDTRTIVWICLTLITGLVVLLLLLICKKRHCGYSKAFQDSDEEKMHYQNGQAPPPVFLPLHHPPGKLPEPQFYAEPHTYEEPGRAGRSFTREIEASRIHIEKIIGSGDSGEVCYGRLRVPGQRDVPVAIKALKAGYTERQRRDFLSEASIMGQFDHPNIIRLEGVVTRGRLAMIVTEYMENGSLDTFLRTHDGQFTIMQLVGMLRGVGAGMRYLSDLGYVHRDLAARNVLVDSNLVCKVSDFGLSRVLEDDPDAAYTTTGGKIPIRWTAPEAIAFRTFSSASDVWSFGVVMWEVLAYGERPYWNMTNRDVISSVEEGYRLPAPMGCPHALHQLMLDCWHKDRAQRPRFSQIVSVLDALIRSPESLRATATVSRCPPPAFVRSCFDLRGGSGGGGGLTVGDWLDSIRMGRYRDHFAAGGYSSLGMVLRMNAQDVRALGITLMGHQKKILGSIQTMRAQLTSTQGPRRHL
How it was run: as §1

JNK2 = biological target: T9, JNK2 (Homo sapiens, UniProt P45984)
T9 construct: purchased Reaction Biology Corp
How it was run: as §1

[1] = read-out: % Enzyme Activity (relative to DMSO controls) Run 1
[2] = read-out: % Enzyme Activity (relative to DMSO controls) Run 2

T9 sequence (P45984 whole entry): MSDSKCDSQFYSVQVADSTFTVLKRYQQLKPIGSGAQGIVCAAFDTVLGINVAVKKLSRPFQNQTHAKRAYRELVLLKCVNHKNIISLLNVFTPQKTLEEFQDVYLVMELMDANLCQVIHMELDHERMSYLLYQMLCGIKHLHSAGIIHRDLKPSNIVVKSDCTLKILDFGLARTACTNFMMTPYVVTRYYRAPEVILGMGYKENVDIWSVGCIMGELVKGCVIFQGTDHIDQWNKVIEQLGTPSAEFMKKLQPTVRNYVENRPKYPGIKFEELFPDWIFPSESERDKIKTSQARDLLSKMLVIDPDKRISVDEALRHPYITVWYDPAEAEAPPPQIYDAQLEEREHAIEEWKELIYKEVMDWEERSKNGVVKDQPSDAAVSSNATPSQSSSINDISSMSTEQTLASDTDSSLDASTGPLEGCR
T1 sequence (P06493 whole entry): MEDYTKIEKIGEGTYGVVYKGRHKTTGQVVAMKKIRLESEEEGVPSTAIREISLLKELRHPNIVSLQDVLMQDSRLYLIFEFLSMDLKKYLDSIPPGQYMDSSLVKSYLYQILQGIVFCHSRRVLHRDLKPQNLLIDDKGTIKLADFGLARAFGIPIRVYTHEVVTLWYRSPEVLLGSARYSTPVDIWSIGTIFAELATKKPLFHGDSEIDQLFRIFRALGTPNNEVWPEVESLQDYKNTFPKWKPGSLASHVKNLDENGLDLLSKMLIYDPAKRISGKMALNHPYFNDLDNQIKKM
T1 sequence (P20248 whole entry partner): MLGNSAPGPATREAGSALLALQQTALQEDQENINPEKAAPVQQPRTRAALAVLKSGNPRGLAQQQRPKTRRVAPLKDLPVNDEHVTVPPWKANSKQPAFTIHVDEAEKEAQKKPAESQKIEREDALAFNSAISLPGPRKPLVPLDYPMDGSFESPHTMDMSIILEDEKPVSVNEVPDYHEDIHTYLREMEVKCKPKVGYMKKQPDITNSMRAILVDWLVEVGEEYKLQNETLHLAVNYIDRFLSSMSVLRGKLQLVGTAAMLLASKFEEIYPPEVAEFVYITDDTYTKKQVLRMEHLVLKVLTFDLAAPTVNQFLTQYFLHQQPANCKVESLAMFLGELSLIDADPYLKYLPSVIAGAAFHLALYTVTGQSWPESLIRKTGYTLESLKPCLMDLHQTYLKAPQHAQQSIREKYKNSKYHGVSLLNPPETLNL
T6 sequence (P48729 whole entry): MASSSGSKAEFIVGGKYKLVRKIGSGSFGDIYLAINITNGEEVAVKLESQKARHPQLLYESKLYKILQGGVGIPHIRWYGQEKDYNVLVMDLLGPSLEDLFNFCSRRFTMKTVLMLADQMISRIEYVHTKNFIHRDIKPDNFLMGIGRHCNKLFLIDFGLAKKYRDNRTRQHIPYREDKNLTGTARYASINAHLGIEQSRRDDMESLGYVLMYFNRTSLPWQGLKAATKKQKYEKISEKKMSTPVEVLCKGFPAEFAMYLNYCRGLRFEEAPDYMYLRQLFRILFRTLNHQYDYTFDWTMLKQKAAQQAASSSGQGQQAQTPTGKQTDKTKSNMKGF
T7 sequence (Q9P289 whole entry): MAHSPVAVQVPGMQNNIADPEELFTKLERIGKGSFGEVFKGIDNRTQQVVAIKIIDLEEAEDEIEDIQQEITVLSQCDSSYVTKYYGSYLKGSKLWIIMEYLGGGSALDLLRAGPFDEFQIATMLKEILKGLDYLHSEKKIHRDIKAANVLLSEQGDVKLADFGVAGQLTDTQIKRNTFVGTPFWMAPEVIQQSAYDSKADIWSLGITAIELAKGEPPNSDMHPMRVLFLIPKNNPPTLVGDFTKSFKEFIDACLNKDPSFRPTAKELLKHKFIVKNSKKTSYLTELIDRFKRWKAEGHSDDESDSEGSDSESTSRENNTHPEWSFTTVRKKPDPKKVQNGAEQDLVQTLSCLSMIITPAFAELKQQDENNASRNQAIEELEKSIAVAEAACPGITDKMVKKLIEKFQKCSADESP
T4 sequence (Q9Y2H1 whole entry): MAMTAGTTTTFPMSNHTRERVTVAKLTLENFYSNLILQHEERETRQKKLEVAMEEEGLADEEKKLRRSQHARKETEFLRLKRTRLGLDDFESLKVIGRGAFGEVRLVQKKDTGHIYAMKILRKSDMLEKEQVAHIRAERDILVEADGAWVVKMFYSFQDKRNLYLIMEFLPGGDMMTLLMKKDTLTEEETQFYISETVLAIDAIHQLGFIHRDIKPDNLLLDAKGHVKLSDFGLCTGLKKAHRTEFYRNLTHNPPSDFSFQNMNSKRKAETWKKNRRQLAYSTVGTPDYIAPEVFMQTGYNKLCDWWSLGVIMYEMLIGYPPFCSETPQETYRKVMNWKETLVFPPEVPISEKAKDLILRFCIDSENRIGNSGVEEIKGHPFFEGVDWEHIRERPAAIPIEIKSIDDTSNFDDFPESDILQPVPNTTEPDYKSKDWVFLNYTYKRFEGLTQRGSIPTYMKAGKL
T3 sequence (O75116 whole entry): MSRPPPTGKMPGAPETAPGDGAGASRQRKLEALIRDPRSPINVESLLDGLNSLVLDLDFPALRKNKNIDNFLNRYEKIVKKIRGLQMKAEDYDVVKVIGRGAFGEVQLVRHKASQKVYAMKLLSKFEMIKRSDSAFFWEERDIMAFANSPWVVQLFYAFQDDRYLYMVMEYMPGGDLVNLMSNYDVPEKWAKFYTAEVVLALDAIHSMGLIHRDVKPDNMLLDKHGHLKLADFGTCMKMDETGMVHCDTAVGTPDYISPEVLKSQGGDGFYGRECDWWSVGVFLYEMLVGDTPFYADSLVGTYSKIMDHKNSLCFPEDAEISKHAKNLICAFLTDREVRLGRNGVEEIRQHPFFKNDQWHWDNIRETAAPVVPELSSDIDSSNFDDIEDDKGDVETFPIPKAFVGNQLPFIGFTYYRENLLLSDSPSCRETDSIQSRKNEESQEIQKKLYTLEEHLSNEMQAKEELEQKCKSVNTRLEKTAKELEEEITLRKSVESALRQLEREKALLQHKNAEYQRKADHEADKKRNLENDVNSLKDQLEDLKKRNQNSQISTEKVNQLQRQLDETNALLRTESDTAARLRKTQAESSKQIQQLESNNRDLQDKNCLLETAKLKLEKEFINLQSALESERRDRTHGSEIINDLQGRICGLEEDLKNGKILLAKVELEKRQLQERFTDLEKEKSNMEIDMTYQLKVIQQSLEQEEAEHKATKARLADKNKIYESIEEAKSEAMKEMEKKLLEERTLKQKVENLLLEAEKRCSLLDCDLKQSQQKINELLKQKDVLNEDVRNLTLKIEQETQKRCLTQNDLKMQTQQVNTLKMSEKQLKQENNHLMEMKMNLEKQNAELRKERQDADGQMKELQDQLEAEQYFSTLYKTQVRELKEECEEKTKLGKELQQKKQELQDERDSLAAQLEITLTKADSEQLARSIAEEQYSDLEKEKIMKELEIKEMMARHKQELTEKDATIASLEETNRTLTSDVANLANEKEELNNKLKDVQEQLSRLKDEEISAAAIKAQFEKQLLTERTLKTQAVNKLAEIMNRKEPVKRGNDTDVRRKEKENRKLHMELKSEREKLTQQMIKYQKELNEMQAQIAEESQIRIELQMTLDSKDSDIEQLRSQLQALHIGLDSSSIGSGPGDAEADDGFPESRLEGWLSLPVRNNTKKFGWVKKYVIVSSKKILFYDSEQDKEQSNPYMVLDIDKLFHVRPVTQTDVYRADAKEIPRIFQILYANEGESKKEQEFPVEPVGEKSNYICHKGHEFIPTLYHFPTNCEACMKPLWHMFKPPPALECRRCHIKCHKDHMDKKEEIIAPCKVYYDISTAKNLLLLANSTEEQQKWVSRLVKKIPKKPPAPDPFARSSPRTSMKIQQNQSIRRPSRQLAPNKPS
T2 sequence (P00519 whole entry): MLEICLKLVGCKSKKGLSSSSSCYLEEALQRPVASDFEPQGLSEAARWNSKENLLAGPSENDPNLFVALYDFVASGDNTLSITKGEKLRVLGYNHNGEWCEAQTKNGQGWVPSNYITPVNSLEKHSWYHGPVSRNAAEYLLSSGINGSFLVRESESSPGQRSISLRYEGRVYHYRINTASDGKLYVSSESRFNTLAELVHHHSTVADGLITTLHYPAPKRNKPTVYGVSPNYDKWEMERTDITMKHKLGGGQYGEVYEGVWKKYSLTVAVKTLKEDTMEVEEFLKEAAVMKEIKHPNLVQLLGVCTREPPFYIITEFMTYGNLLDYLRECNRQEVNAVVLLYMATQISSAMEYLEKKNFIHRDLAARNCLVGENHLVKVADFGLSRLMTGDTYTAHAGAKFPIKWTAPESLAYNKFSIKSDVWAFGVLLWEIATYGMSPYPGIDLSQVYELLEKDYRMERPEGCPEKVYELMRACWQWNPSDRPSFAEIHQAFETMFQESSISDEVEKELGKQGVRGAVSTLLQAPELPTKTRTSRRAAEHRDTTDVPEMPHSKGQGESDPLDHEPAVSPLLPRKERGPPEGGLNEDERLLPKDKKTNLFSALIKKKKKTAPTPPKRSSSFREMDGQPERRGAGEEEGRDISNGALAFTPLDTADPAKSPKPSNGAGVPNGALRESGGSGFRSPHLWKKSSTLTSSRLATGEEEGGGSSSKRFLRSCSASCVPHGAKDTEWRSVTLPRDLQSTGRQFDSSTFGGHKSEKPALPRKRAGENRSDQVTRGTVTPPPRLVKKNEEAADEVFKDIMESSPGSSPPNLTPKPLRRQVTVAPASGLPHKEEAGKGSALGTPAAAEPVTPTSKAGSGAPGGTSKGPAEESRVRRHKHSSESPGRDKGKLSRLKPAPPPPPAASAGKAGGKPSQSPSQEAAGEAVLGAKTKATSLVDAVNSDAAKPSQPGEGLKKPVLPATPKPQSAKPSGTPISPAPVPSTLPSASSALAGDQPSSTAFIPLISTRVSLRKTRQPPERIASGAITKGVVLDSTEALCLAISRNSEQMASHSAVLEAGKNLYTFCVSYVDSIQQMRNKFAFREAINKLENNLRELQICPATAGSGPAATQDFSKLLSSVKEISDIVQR

C=CC(=O)Nc1cccc(Nc2nc(Nc3ccc(OCCOC)c(F)c3)ncc2F)c1 [Compound 2]
inhibition at 3 µM (CDK1/cyclin A): -18%
remaining activity at 3 µM (CDK1/cyclin A; [1]): 112%
remaining activity at 3 µM (CDK1/cyclin A; [2]): 124%
inhibition at 3 µM (ABL1): 54.7%
remaining activity at 3 µM (ABL1; [1]): 45.4%
remaining activity at 3 µM (ABL1; [2]): 45.2%
inhibition at 3 µM (ROCK2): -1.88%
remaining activity at 3 µM (ROCK2; [1]): 102%
remaining activity at 3 µM (ROCK2; [2]): 101%
inhibition at 3 µM (STK38L/NDR2): -1.33%
remaining activity at 3 µM (STK38L/NDR2; [1]): 107%
remaining activity at 3 µM (STK38L/NDR2; [2]): 96%
inhibition at 3 µM (P38g): -5.53%
remaining activity at 3 µM (P38g; [1]): 105%
remaining activity at 3 µM (P38g; [2]): 106%
inhibition at 3 µM (CK1a1): -6.67%
remaining activity at 3 µM (CK1a1; [1]): 108%
remaining activity at 3 µM (CK1a1; [2]): 106%
inhibition at 3 µM (MST4): -1.09%
remaining activity at 3 µM (MST4; [1]): 97.8%
remaining activity at 3 µM (MST4; [2]): 104%
inhibition at 3 µM (EPHA8): 5.98%
remaining activity at 3 µM (EPHA8; [1]): 94.2%
remaining activity at 3 µM (EPHA8; [2]): 93.8%
inhibition at 3 µM (JNK2): 6.22%
remaining activity at 3 µM (JNK2; [1]): 92.5%
remaining activity at 3 µM (JNK2; [2]): 95.1%
